Assays:
[1] = Weight gain in rats subjected to CMF chemotherapy; format: in vivo, Wistar female rats
Procedure: Wistar female rats (2-4 months of age, 200-300 g) (n=10/group) were obtained from Harlan laboratories. Rats were housed in pairs, kept at 12 h light/12 h dark cycle and maintained in an air-conditioned room at a temperature of 21±1° C. and relative humidity of 60±10%. Food and water were available ad libitum. All rats were acclimated to the Veterinary Medical Unit for 1 week and handled daily. Weight was recorded every 2 days to assess for dehydration induced by the chemotherapy regime. All procedures were approved by the Institutional Animal Care and Use (IACUC) committee of the Bay Pines Veterans Affairs (VA) Healthcare System, in accordance with VA and The Guide for the Care and Use of Laboratory Animals. Following the habituation period, rats were divided into 4 groups (n=6-12/condition) and treated with warm saline (vehicle) or a combination of cyclophosphamide (40 mg/kg), methotrexate (37.5 mg/kg) and 5-fluorouracil (75 mg/kg) (CMF) via intraperitoneal (i.p. or IP) injection once a week for 2 weeks, the shortest time inducing cognitive impairment in the rats. […] Differences among the means were analyzed using one-way analysis of variance (ANOVA). […]

[2] = system: neurogenesis genes in the hippocampus of mice; experiment: Neurogenesis and neural stem cell RT-PCR array on hippocampus of mice subjected to forced swimming stress; format: in vivo
Excerpt: (§1) Two-month-old male C57BU6J mice (The Jackson Laboratory, Bar Harbor, Me.), weighing 25-30 g were maintained on a 12-hours light/dark cycle (light on at 07:00) with ad libitum access to food and water and maintained at a regulated temperature of 25±1″C. Upon arrival mice were group-housed and acclimated for 7 days before any intervention.
(§2) Mice were randomly divided into three groups as follows: group 1 controls that were not exposed to stress (NES) and treated with vehicle (phosphate buffered saline, PBS); group 2 controls subjected to forced swimming stress (FSB) and treated with vehicle; group 3 subjected to forced swimming stress and treated with cotinine (FSA).
(§3) Cotinine ((5S)-1-methyl-5-(3-pyridyl) pyrrolidin-2-one; Sigma-Aldrich Corporation, St. Louis, Mo., USA) solutions were prepared by dissolving the powdered compound in sterile phosphate buffered saline (PBS), and vehicle (PBS). Mice were treated with vehicle or cotinine (5 mg/kg) via gavage. […] All investigators were blind to treatment groups and doses were chosen based on previously studies (Zeitlin, et al., (2012) Cotinine enhances the extinction of contextual fear memory and reduces anxiety after fear conditioning. Behav Brain Res, 228, 284-293.). Treatments were administered for 7 days before the induction of stress. For all animals, treatment continued from the onset of treatment until euthanasia.
(§4) To induce chronic stress, mice were subjected to repetitive forced swimming (FS) for six consecutive days, for six minutes each day, as described previously (Furukawa-Hibi, et al., (2011) The hydrophobic dipeptide Leu-lie inhibits immobility induced by repeated forced swimming via the induction of BDNF. Behav Brain Res. 2011 Jul. 7; 220(2):271-280). Each mouse was placed in an inescapable transparent plastic cylinder (40 centimeters (cm) high×20 cm in diameter) filled with water to a depth of 30 cm, for six minutes. Water temperature was maintained at 24-25° C. and water was changed between all trials. In all cases, following exposure, animals were retrieved, dried with a hand towel and returned to their home cages. Mice assigned to NES control group were removed from the animal housing facility and taken to the behavioral testing room during the same period of time than FS mice, but remained in their home cages during the FS period. In all experiments, no mice needed assistance to avoid drowning.
(§5) Following behavioral experimentation, euthanasia was performed via cervical dislocation under anesthesia with isofluorane (4% induction, 2% maintenance) by investigators not assigned to prior work with the mice blinded to the treatments. Whole brains were collected and immediately stored frozen at −80° C.
(§6) The hippocampi were dissected on ice and placed into RNAlater tubes (Life Technologies; Thermo Fisher Scientific, Waltham, Mass.). RNAlater is a proprietary solution which protects RNA in tissue samples from degradation to allow for analysis at a later date. RNase free conditions were created and maintained throughout the procedure by washing labware in a 0.1% DEPC solution followed by rinsing with RNase free water. Total RNA extraction and purification was performed using RNeasy Lipid Tissue Extraction Kit (Qiagen N.V., Venlon NL). Sample homogenization was performed using Kontes Pellet Pestle Cordless Motor and/or 20 gauge needle and syringe. Samples were extracted using a Qiazol/Chloroform extraction. The samples were purified on an RNeasy spin column using multiple washes. An on-column DNase incubation was performed in order to remove contaminating DNA. The entire extraction and purification step was performed twice to remove all contaminating DNA for samples ran on the neurogenesis arrays. Samples were eluted in RNase free water.
(§7) Nucleic acid quantification was performed on the RNA, to determine how many microliters of sample to add to the cDNA reaction, as the reaction requires a specific concentration of RNA to achieve optimal results. […]

[3] = system: inflammation genes in the hippocampus of stressed mice; experiment: Inflammatory response and Autoimmunity PCR array (RT-PCR) on hippocampus of mice subjected to forced swimming stress; format: in vivo
Excerpt: as §1, §2, §3, §4, §5, §6, §7

[4] = stressed mice treated with cotinine compared to stressed mice treated with vehicle
[5] = hippocampus, forced swimming stress, cotinine 5 mg/kg gavage vs stressed vehicle-treated (FSB)
[6] = stressed mouse, cotinine vs vehicle

SMILES: CN1C(=O)CC[C@H]1c1cccnc1 [cotinine, (5S)-1-methyl-5-(3-pyridyl) pyrrolidin-2-one]
- recovery of weight gain after chemotherapy ([1]; CMF-treated rats, cotinine 5 mg/kg oral daily from 3 days after chemotherapy, vs chemotherapy-treated control rats p<0.05): enhanced the recovery of weight gain
- weight levels reached compared with vehicle-treated rats ([1]; cotinine 5 mg/kg oral daily, 30 days of experiments): indistinguishable from the vehicle-treated rats
- decrease in share of down-regulated neurogenesis genes ([2]; FSA versus stressed vehicle-treated, each compared to non-stressed mice): 17%
- neurogenesis genes down-regulated ([2]; forced swimming stress + cotinine (FSA) compared to mice not exposed to stress): 56%
- neurogenesis genes analyzed that were up regulated ([2]; hippocampi from cotinine-treated stressed mice compared to vehicle-treated stressed mice): 67%
- VEGFa mRNA expression, RT-PCR assay ([2]; hippocampus of cotinine-treated FS mice compared to vehicle-treated FS mice (p<0.01)): up-regulated
- number of neurogenesis genes with differential regulation ([2]; results from all three comparisons, 1.3-fold cut-off with opposite effect by cotinine): 15 genes
- Errb2 expression up regulation ([2]; stressed mice treated with cotinine compared to stress control mice): 1.3 fold
- Artn expression up regulation [2, 4]: 1.2 fold
- EGF expression up regulation [2, 4]: 1.5 fold
- Gdnf expression up regulation [2, 4]: 2.0 fold
- VEGFa expression up regulation [2, 4]: 1.3 fold
- number of inflammation genes differentially expressed ([3]; cut off of two-fold difference, stressed mouse treated with cotinine versus stressed mouse treated with vehicle): 10 genes
- Fos expression decreased by ([3]; forced swimming + cotinine compared to forced swimming + vehicle): 2.5 fold
- Complement component 3 (C3) decreased by ([3]; forced swimming + cotinine compared to stressed mouse treated with vehicle): 2.9 fold
- C3 (Complement component 3) Fold regulation comparing to FSB [3, 5]: −2.89 fold
- Ccl1 (Chemokine (C-C motif) ligand 1) Fold regulation comparing to FSB [3, 5]: 2.21 fold
- Ccl2 (Chemokine (C-C motif) ligand 2) Fold regulation comparing to FSB [3, 5]: 2.46 fold
- Ccl3 (Chemokine (C-C motif) ligand 3) Fold regulation comparing to FSB [3, 5]: −4.00 fold
- Ccr2 (Chemokine (C-C motif) receptor 2) Fold regulation comparing to FSB [3, 5]: −2.87 fold
- Ccr4 (Chemokine (C-C motif) receptor 4) Fold regulation comparing to FSB [3, 5]: 2.96 fold
- Fos (FBJ osteosarcoma oncogene) Fold regulation comparing to FSB [3, 5]: −2.55 fold
- Nos2 (Nitric oxide synthase 2, inducible) Fold regulation comparing to FSB [3, 5]: −3.93 fold
- Tlr1 (Toll-like receptor 1) Fold regulation comparing to FSB [3, 5]: 2.32 fold
- Tnfsf14 (Tumor necrosis factor (ligand) superfamily, member 14) Fold regulation comparing to FSB [3, 5]: 6.18 fold
- inflammation genes analyzed that were down-regulated ([3]; stressed mice treated with cotinine vs stressed vehicle, hippocampus): 61%
- Ccl3 change (down regulated by cotinine) [3, 6]: 2.8 fold
- Ccr2 change (down regulated by cotinine) [3, 6]: 4.0 fold
